This note sets out measurements from patent US8846951B2 (AbbVie Inc., priority 2009, dated 2014).

Structures are written as SMILES. Read-outs that look alike come from different tables or passages of the source.

One experiment concerns the target T1, 5HT2C receptors (Homo sapiens, UniProt P28335).
T1 sequence (P28335 33-458): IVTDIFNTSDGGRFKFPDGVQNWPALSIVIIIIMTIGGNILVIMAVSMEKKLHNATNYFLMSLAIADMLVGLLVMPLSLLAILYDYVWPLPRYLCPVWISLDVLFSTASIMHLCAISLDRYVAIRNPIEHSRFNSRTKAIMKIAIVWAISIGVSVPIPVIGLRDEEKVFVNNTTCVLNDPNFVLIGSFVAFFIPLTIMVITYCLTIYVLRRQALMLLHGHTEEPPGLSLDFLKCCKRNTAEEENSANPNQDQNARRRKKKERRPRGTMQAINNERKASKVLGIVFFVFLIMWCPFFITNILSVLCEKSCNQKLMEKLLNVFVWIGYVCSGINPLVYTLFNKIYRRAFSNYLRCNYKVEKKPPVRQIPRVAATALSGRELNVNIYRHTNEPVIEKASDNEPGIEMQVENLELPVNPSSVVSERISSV
The experiment in a line: Human 5-HT2C functional high throughput screening assay in CHO-K1 cells (calcium flux). It is filed as cell-based. Set-up: expressed in transfected cells; host or cells: CHO-K1 cells. The conditions noted are these: for Emax: CHO-K1, 5-HT2C, maximum functional response as percentage relative to the effect of serotonin; for EC50: CHO-K1 cells, calcium flux. On the procedure:
(§1) (iii) Human 5-HT2C and 5-HT2B Functional High Throughput Screening Assays in CHO-K1 Cells
(§2) CHO-K1 cells over-expressing 5HT2C or 5HT2B receptors were grown in 1272 cm^2 flasks to 70-80% confluency in UltraCHO media (Lonza, Walkersville, Md.) supplemented with 1% dialyzed fetal bovine serum (FBS), 250 μg/mL zeocin, 100 U/mL penicillin and 100 μg/mL streptomycin, and 400 μg/mL geneticin. The cells were dissociated from the flasks using 0.05% trypsin, resuspended in Recovery™ cell culture freezing medium (Invitrogen, Carlsbad, Calif.) and stored in liquid nitrogen until use. The calcium flux experiments were done using frozen cells. The cells were diluted in media containing 1% dialyzed FBS and 100 U/mL penicillin and 100 μg/mL streptomycin and plated into 384-well poly-D-Lysine coated plates (15,000 cells/well). Then the plates were incubated overnight in a cell incubator at 37° C., 5% CO2. On the next day, the growth media was replaced with media without FBS and further incubated overnight. On day three, the changes in intracellular Ca^2+ were determined using calcium sensitive fluorescent dye, Ca4 (MDS Analytical Technologies, Sunnyvale, Calif.) by loading 15 μL of diluted dye in Hank's Balanced Salt Solution and 20 mM Hepes buffer (pH 7.4) with final concentration of 2.5 mM probenecid into the cells containing media. Then the cells were incubated at room temperature for 60 minutes in dark.
(§3) After incubation, the cell plates were transferred to FLIPR™ (MDS) and their fluorescence measurements were read at an excitation wavelength of 480 nm and an emission wavelength of 530 nm at 25° C. The baseline fluorescence was measured for the first 10 seconds and then 15 μL of 4× concentration of serotonin/test compound was added to the cells. The fluorescence intensity was captured every second for the first 1 minute followed by every 5 seconds for an additional 2 minutes. The increase in fluorescent response by a test compound was normalized to the response of serotonin and used to determine agonist activity. The concentration response of compounds was done from a starting concentration of 10 μM, 1:10 dilution across 6 wells with a final dimethyl sulfoxide concentration of 0.2% and was fitted using a 4-parameter logistic equation. The concentration at which a compound exerts half its maximal effect was named as ‘effective concentration 50’ or ‘EC50’. Emax is the maximum functional response or efficacy expressed as a percentage relative to the effect of serotonin.

The next experiment has as its target T2, 5HT2B receptors (Homo sapiens, UniProt P41595).
T2 construct: expressed in transfected cells; host or cells: CHO-K1 cells
The experiment can be described thus: Human 5-HT2B functional high throughput screening assay in CHO-K1 cells (calcium flux). Type of experiment: cell-based. The conditions noted are these: for EC50: CHO-K1 cells, calcium flux. As for the experimental part: as §1, §2, §3
Background: Calcium flux is commonly read through the fluorescence of an indicator in the cells.

Where [1] appears, read: 5-HT2B, maximum functional response as percentage relative to the effect of serotonin.
The mark [2] stands for this setting: 5-HT2C agonist activity, read-out: EC50.
Where [3] appears, read: 5-HT2B agonist activity, read-out: EC50.

T2 sequence (P41595 whole entry): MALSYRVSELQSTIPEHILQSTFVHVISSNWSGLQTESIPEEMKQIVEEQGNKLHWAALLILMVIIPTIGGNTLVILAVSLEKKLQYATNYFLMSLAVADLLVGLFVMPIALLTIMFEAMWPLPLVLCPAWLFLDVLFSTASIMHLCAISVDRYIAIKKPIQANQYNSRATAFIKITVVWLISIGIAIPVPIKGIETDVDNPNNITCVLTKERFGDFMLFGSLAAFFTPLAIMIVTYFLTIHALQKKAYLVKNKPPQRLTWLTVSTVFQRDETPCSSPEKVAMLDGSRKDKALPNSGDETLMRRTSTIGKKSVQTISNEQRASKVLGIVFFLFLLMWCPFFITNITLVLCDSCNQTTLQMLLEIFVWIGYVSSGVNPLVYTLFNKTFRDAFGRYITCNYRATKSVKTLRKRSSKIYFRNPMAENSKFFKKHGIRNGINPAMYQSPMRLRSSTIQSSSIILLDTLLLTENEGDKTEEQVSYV

On to `O=C1NC[C@@H]2CNC[C@H]2c2ccc(OCC3CCCCC3)cc21` (relative stereo) [Example 167, Trans-8-(cyclohexylmethoxy)-1,2,3,3a,4,5-hexahydrobenzo[e]pyrrolo[3,4-c]azepin-6(10bH)-one], for which the Emax (commonly the maximal effect, on the per cent scale that the assay sets) was above 120% at 5HT2C receptors and “inactive” at 5HT2B receptors (setting [1]). For the same compound, the EC50 (in general, the concentration needed to bring the measured effect to its halfway point) on 5HT2C receptors (EC50, 5-HT2C agonist activity) is 5 nM; at 5HT2B receptors (EC50, 5-HT2B agonist activity), above 10000 nM.

Turning to `O=C1NC[C@@H]2CNC[C@H]2c2ccc(-c3ccsc3Cl)cc21` (relative stereo) [Example 385, Trans-8-(2-chloro-3-thienyl)-2,3,3a,4,5,10b-hexahydropyrrolo[3,4-d][2]benzazepin-6(1H)-one], the values for the EC50 on 5HT2C receptors (setting [2]) and on 5HT2B receptors (setting [3]) were 0.3 nM and above 10000 nM, respectively. Besides, the Emax at 5HT2C receptors (read-out: Emax) is 95%; at 5HT2B receptors (setting [1]), “inactive”.

Turning to `CCC(O)c1cccc(-c2ccc3c(c2)C(=O)NC[C@H]2CN(C)C[C@H]32)c1` (stereo partly drawn) [Example 311, (3aS,10bS)-8-[3-(1-Hydroxypropyl)phenyl]-2-methyl-2,3,3a,4,5,10b-hexahydropyrrolo[3,4-d][2]benzazepin-6(1H)-one], the EC50 was 0.8 nM at 5HT2C receptors (setting [2]) and above 10000 nM at 5HT2B receptors (setting [3]). In addition, the results for the maximal response (Emax) at 5HT2C receptors (read-out: Emax) and on 5HT2B receptors (setting [1]) were 95% and “inactive”, respectively.

For the compound `C=C(c1ccc2c(c1)C(=O)NC[C@@H]1CN(C)C[C@@H]21)C(F)(F)F` (relative stereo) [Example 202, Trans-2-methyl-8-(3,3,3-trifluoroprop-1-en-2-yl)-1,2,3,3a,4,5-hexahydrobenzo[e]pyrrolo[3,4-c]azepin-6(10bH)-one], the EC50 is 400 nM at 5HT2C receptors (setting [2]) and above 10000 nM on 5HT2B receptors (setting [3]). The Emax at 5HT2C receptors was 80%; on 5HT2B receptors (setting [1]), “inactive”.

For `CS(=O)(=O)c1ccccc1-c1ccc2c(c1)C(=O)NC[C@@H]1CNC[C@@H]21` (relative stereo) [Example 231, Trans-8-(2-(methylsulfonyl)phenyl)-1,2,3,3a,4,5-hexahydrobenzo[c]pyrrolo[3,4-e]azepin-6(10bH)-one], the EC50 on 5HT2C receptors (setting [2]) was 900 nM; on 5HT2B receptors (setting [3]), above 10000 nM. Moreover, the Emax at 5HT2C receptors (read-out: Emax) is 105%; on 5HT2B receptors (setting [1]), “inactive”.

On to `Brc1ccc2c(c1)[C@@H]1CNC[C@H]1CCN2` (relative stereo) [Example 396, Trans-9-bromo-1,2,3,3a,4,5,6,10b-octahydropyrrolo[3,4-d][1]benzazepine], for which the results for the Emax on 5HT2C receptors and at 5HT2B receptors (CHO-K1) were 90% and 60%, respectively. Also, the EC50 at 5HT2C receptors (EC50, 5-HT2C agonist activity) was found to be 30 nM; at 5HT2B receptors (EC50, 5-HT2B agonist activity), 6 nM.

Regarding `CN1C[C@@H]2CNC(=O)c3cc(Cl)ccc3[C@H]2C1` [Example 199, (3aS,10bS)-8-Chloro-2-methyl-1,2,3,3a,4,5-hexahydrobenzo[e]pyrrolo[3,4-c]azepin-6(10bH)-one], the Emax on 5HT2C receptors was above 120%; at 5HT2B receptors (setting [1]) it was “inactive”. The EC50 on 5HT2C receptors (EC50, 5-HT2C agonist activity) was 10 nM; on 5HT2B receptors (EC50, 5-HT2B agonist activity) it was above 10000 nM.

As to `Nc1ccc2c(c1)C(=O)NC[C@@H]1CNC[C@H]21` (relative stereo) [Example 145, Cis-8-amino-1,2,3,3a,4,5-hexahydrobenzo[e]pyrrolo[3,4-c]azepin-6(10bH)-one], the Emax on 5HT2C receptors is 15%; at 5HT2B receptors (setting [1]) it was “inactive”. The EC50 on 5HT2C receptors (EC50, 5-HT2C agonist activity) is 3000 nM; at 5HT2B receptors (EC50, 5-HT2B agonist activity) it was above 10000 nM.

As for `O=C1NC[C@@H]2CN(Cc3ccccc3)C[C@H]2c2ccc(OCCc3ccccc3)cc21` (relative stereo) [Example 121, Trans-2-benzyl-8-phenethoxy-1,2,3,3a,4,5-hexahydrobenzo[e]pyrrolo[3,4-c]azepin-6(10bH)-one], the results for the EC50 at 5HT2C receptors (setting [2]) and on 5HT2B receptors (setting [3]) were 200 nM and above 10000 nM, respectively. Also, the Emax at 5HT2C receptors (read-out: Emax) is 120%; at 5HT2B receptors (setting [1]) it was “inactive”.

Regarding `c1ccc(-c2ccc3c(c2)OCC[C@H]2CNC[C@H]32)cc1` (relative stereo) [Example 108, Trans-8-phenyl-2,3,3a,4,5,10b-hexahydro-1H-[1]benzoxepino[4,5-c]pyrrole], the EC50 is 200 nM on 5HT2C receptors (setting [2]) and above 10000 nM on 5HT2B receptors (setting [3]). In addition, the Emax on 5HT2C receptors (read-out: Emax) was 110%; on 5HT2B receptors (setting [1]), “inactive”.

As to `O=C1NC[C@@H]2CNC[C@H]2c2ccc(OCc3ccccc3F)cc21` [Example 180, (3aS,10bR)-8-(2-Fluorobenzyloxy)-1,2,3,3a,4,5-hexahydrobenzo[e]pyrrolo[3,4-c]azepin-6(10bH)-one], the Emax is above 120% on 5HT2C receptors and “inactive” on 5HT2B receptors (setting [1]). Further, the EC50 at 5HT2B receptors (EC50, 5-HT2B agonist activity) was above 10000 nM.

Take `CN1C[C@@H]2CCCc3ccccc3[C@@H]2C1` (relative stereo) [Example 269, Cis-2-methyl-1,2,3,3a,4,5,6,10b-octahydrobenzo[3,4]cyclohepta[1,2-c]pyrrole]: the Emax on 5HT2C receptors was above 120%; on 5HT2B receptors (CHO-K1) it was 50%. Besides, the EC50 worked out at 100 nM on 5HT2C receptors (EC50, 5-HT2C agonist activity) and 800 nM on 5HT2B receptors (EC50, 5-HT2B agonist activity).

Turning to `O=C1NC[C@@H]2CNC[C@H]2c2ccc(-c3ccc(F)cc3)cc21` (relative stereo) [Example 219, Trans-8-(4-fluorophenyl)-1,2,3,3a,4,5-hexahydrobenzo[e]pyrrolo[3,4-c]azepin-6(10bH)-one], the Emax was above 120% on 5HT2C receptors (read-out: Emax) and “inactive” at 5HT2B receptors (setting [1]). Also, the EC50 on 5HT2B receptors (setting [3]) is above 10000 nM.

Take `O=C1NC[C@@H]2CNC[C@H]2c2ccc(C3CCOCC3)cc21` (relative stereo) [Example 265, Trans-8-(tetrahydro-2H-pyran-4-yl)-1,2,3,3a,4,5-hexahydrobenzo[c]pyrrolo[3,4-e]azepin-6(10bH)-one]: the EC50 on 5HT2C receptors (setting [2]) is 100 nM; on 5HT2B receptors (setting [3]), above 10000 nM. For the same compound, the figures for the Emax on 5HT2C receptors (read-out: Emax) and at 5HT2B receptors (setting [1]) were above 120% and “inactive”, respectively.

With `O=C1NC[C@@H]2CNC[C@H]2c2cc3c(cc21)CCCC3` (relative stereo) [Example 258, Trans-1,2,3,3a,4,5,8,9,10,11-decahydronaphtho[2,3-c]pyrrolo[3,4-e]azepin-6(12bH)-one], the figures for the Emax on 5HT2C receptors and at 5HT2B receptors (setting [1]) were 100% and “inactive”, respectively. In addition, the EC50 on 5HT2C receptors (EC50, 5-HT2C agonist activity) is 10 nM; at 5HT2B receptors (EC50, 5-HT2B agonist activity), above 10000 nM.

With `COc1ccc(-c2ccc3c(c2)C(=O)NC[C@@H]2CN(C)C[C@@H]32)cc1C` (relative stereo) [Example 315, Trans-8-(4-methoxy-3-methylphenyl)-2-methyl-2,3,3a,4,5,10b-hexahydropyrrolo[3,4-d][2]benzazepin-6(1H)-one], the EC50 at 5HT2C receptors (setting [2]) is 30 nM; on 5HT2B receptors (setting [3]), above 10000 nM. Besides, the Emax at 5HT2C receptors (read-out: Emax) is 90%; on 5HT2B receptors (setting [1]), “inactive”.

For the compound `CN1C[C@@H]2CCOc3c(-c4cccnc4)cccc3[C@H]2C1` (relative stereo) [Example 370, Trans-2-methyl-7-(pyridin-3-yl)-2,3,3a,4,5,10b-hexahydro-1H-[1]benzoxepino[4,5-c]pyrrole], the results for the concentration giving a half-maximal response (EC50) on 5HT2C receptors (setting [2]) and on 5HT2B receptors (setting [3]) were 400 nM and above 10000 nM, respectively. In addition, the results for the Emax at 5HT2C receptors and on 5HT2B receptors (setting [1]) were 90% and “inactive”, respectively.

Turning to `COc1cccc2c1[C@H]1CN(C)C[C@@H]1CCO2` (relative stereo) [Example 273, Trans-10-methoxy-2-methyl-2,3,3a,4,5,10b-hexahydro-1H-[1]benzoxepino[4,5-c]pyrrole], the Emax at 5HT2C receptors was above 120%; at 5HT2B receptors (CHO-K1), 35%. Moreover, the EC50 came to 10 nM on 5HT2C receptors (EC50, 5-HT2C agonist activity) and 100 nM on 5HT2B receptors (EC50, 5-HT2B agonist activity).
